Tests used:
[1] = tested on: Rattus norvegicus; test: Antiinflammatory activity in Wistar CF rat assessed as inhibition of carrageenan-induced paw oedema at 100 mg/kg, po administered 1 hr prior to carrageenan-challenge after 4 hrs (reference value: 78.14 +/- 7.1 %); assay type: functional
[2] = tested on: Mus musculus; test: Analgesic activity in mouse assessed as latency time of jumping as nociceptive response at 250 mg/kg, po after 0.5 hrs by hot plate test (reference value: 11.16 +/- 1.66 sec); assay type: functional
[3] = tested on: Mus musculus; test: Analgesic activity in mouse assessed as latency time of jumping as nociceptive response at 250 mg/kg, po after 1 hr by hot plate test (reference value: 14.3 +/- 0.99 sec); assay type: functional
[4] = tested on: Mus musculus; test: Analgesic activity in mouse assessed as latency time of jumping as nociceptive response at 250 mg/kg, po after 1.5 hrs by hot plate test (reference value: 16.8 +/- 2.12 sec); assay type: functional
[5] = tested on: Rattus norvegicus; test: Ulcerogenic activity in fasted Wistar albino rat assessed as ulcer index at 100 mg/kg, po after 5 hrs; assay type: toxicity, organism-based; design: dose 100 mg/kg, route oral; settings: in vivo
[6] = tested on: Rattus norvegicus; test: Ulcerogenic activity in fasted Wistar albino rat assessed as severity of ulcer at 100 mg/kg, po after 5 hrs; assay type: toxicity, organism-based; design: dose 100 mg/kg, route oral; settings: in vivo
[7] = tested on: Mus musculus; test: Analgesic activity in mouse assessed as latency time of paw licking as nociceptive response at 250 mg/kg, po after 0.5 hrs by hot plate test (reference value: 11.16 +/- 1.66 sec); assay type: functional
[8] = tested on: Mus musculus; test: Analgesic activity in mouse assessed as latency time of paw licking as nociceptive response at 250 mg/kg, po after 1 hr by hot plate test (reference value: 14.3 +/- 0.99 sec); assay type: functional
[9] = tested on: Mus musculus; test: Analgesic activity in mouse assessed as latency time of paw licking as nociceptive response at 250 mg/kg, po after 1.5 hrs by hot plate test (reference value: 16.8 +/- 2.12 sec); assay type: functional
[10] = tested on: Rattus norvegicus; test: Antiinflammatory activity in Wistar CF rat assessed as inhibition of carrageenan-induced paw oedema at 100 mg/kg, po administered 1 hr prior to carrageenan-challenge after 1 hr (reference value: 55.7 +/- […] %); assay type: functional
[11] = tested on: Rattus norvegicus; test: Antiinflammatory activity in Wistar CF rat assessed as inhibition of carrageenan-induced paw oedema at 100 mg/kg, po administered 1 hr prior to carrageenan-challenge after 2 hrs (reference value: 68.6 +/- 7.14 %); assay type: functional
[12] = tested on: Rattus norvegicus; test: Antiinflammatory activity in Wistar CF rat assessed as inhibition of carrageenan-induced paw oedema at 100 mg/kg, po administered 1 hr prior to carrageenan-challenge after 3 hrs (reference value: 74.63 +/- 7.13 %); assay type: functional

Structure (SMILES) | inhibition in vivo at 100 mg/kg [1] [%] | Time [2] [s] | Time [3] [s] | Time [4] [s] | UI [5] | Activity [6] | Time [7] [s] | Time [8] [s] | Time [9] [s] | inhibition in vivo at 100 mg/kg [10] [%] | inhibition in vivo at 100 mg/kg [11] [%] | inhibition in vivo at 100 mg/kg [12] [%]
COc1ccc(/C=N/c2ccc(OC(=O)C(C)c3ccc(CC(C)C)cc3)cc2)cc1 (stereo not drawn) | 64.7 | 20.18 | 35.14 | 28.1 | 0 | Non-toxic | 20.18 | 35.14 | 28.1 | 54 | 56.2 | 61.2
CC(C)Cc1ccc(C(C)C(=O)Oc2ccc(/N=C/c3ccc([N+](=O)[O-])cc3)cc2)cc1 (stereo not drawn) | 53.8 | 23.52 | 34.62 | 24.98 | 0 | Non-toxic | 23.52 | 34.62 | 24.98 | 29.9 | 44.4 | 50.3
CC(C)Cc1ccc(C(C)C(=O)Oc2ccc(/N=C/c3ccc(N(C)C)cc3)cc2)cc1 (stereo not drawn) | 107 | 22.22 | 32.14 | 23 | 0 | Non-toxic | 22.22 | 32.14 | 23 | 71.7 | 96.1 | 104
CC(C)Cc1ccc(C(C)C(=O)Oc2ccc(/N=C/c3ccc(Br)cc3)cc2)cc1 (stereo not drawn) | 49.3 | 19.62 | 33.44 | 26.12 | 0 | Non-toxic | 19.62 | 33.44 | 26.12 | 36.5 | 40.6 | 44.7
COc1ccc(/C=N/c2ccc(OC(=O)c3ccccc3Nc3cccc(C)c3C)cc2)cc1 | 62.1 | 21.68 | 25.08 | 18.46 | 0 | Non-toxic | 21.68 | 25.08 | 18.46 | 35.2 | 49.4 | 57
Cc1cccc(Nc2ccccc2C(=O)Oc2ccc(/N=C/c3ccc([N+](=O)[O-])cc3)cc2)c1C | 52.5 | 18.04 | 25.98 | 20.82 | 0 | Non-toxic | 18.04 | 25.98 | 20.82 | 36.9 | 41.1 | 43.8
Cc1cccc(Nc2ccccc2C(=O)Oc2ccc(/N=C/c3ccc(N(C)C)cc3)cc2)c1C | 63.5 | 23.16 | 24.4 | 15.96 | 0 | Non-toxic | 23.16 | 24.4 | 15.96 | 41.6 | 45.6 | 53.4
Cc1cccc(Nc2ccccc2C(=O)Oc2ccc(/N=C/c3ccc(Br)cc3)cc2)c1C | 51.7 | 20.72 | 21.22 | 19.38 | 0 | Non-toxic | 20.72 | 21.22 | 19.38 | 32 | 38.5 | 46.5
CC(C)Cc1ccc(C(C)C(=O)O)cc1 (racemic) [IBUPROFEN] | 44 | 17.84 | 16.1 | 19 | 4.03 | Toxic | 17.84 | 16.1 | 19 | 30 | 36.2 | 41.8
